Experimental data: article PMC10509173, “Deep learning driven de novo drug design based on gastric proton pump structures” (Communications Biology, 2023)
Several values for one entry are separate records, joined by “and”; a condition that tells them apart may be missing. Identical values can stand only once. Like-named read-outs stand apart in the source and are kept apart here. Each block holds one compound with its values, some of them ahead of it.

Experiments:
[1] = tested on: H+,K+-ATPase; set-up: method as in PMID 35604136, PMID 28747707; settings: cited from earlier work
[2] = biological target: T1, H+,K+-ATPase (Sus scrofa, UniProt P19156); assay: Dose-dependent inhibition of H+,K+-ATPase activity, membrane fractions; settings: for H+,K+-ATPase activity, raw data of dose-dependent inhibition: single replicate values
[3] = biological target: T1, H+,K+-ATPase; assay: K+-dependent ATPase assay, double reciprocal plot and Ki estimation; type: biochemical, pig; set-up: H^+,K^+-ATPase-enriched membrane fractions were purified from pig stomach; from tissue; host or cells: pig stomach (gastric membrane fractions); reciprocal K+-stimulated ATPase activity, Lineweaver-Burk raw data: unit not given here; settings: for reciprocal K+-stimulated ATPase activity, Lineweaver-Burk raw data: replicate values
Source text: Data measured from 96-well plate contained triplicates of four different sets of K^+-dependent ATPase assays in the absence or presence of three different concentrations of synthesized compounds. Data were corrected for background values in the absence of K^+ at each compound concentration, and plot them against the double reciprocal axes in Supplementary Fig. 5. Data were also fitted by using simultaneous nonlinear regression as described previously to estimate their Ki values.

[4] = biological target: H+,K+-ATPase; set-up: method as in PMID 2837231; settings: cited from earlier work

T1 sequence (P19156 2-1034 limits assumed): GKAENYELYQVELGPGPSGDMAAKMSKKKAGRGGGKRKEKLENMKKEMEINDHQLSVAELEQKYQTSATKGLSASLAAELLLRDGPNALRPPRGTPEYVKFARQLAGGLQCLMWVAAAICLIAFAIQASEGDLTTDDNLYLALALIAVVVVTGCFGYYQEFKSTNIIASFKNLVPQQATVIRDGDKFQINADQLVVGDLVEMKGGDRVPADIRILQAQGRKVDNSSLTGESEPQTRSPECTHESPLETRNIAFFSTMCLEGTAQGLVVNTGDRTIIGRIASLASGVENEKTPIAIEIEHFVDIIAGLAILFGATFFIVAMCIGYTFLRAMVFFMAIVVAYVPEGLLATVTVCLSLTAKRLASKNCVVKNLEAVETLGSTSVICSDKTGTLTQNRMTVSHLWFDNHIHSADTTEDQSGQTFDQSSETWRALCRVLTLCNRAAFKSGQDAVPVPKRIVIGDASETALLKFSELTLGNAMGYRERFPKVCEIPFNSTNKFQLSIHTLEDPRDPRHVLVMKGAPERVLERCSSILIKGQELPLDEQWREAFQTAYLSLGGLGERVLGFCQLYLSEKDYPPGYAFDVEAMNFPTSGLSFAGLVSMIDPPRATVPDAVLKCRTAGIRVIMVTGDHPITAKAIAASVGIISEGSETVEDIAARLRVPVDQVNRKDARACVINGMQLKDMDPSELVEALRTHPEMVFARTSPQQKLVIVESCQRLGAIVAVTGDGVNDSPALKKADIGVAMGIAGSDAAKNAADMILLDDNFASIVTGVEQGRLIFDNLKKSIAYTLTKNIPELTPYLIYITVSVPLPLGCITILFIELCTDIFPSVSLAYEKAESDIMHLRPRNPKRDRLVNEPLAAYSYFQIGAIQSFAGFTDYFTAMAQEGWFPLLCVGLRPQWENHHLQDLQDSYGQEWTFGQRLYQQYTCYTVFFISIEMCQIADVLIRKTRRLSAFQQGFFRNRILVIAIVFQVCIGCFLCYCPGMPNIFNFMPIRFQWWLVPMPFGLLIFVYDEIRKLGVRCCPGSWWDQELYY
T1 sequence (P18434 whole entry partner): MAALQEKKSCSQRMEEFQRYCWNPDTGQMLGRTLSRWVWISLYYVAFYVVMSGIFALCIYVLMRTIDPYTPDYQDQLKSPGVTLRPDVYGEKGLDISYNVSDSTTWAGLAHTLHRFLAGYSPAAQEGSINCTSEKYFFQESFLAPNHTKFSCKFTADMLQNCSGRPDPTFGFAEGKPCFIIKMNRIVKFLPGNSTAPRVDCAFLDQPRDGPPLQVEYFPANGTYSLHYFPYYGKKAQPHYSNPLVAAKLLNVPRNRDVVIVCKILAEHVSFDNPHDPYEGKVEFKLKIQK

Structure (SMILES): Cc1nc2c3c(ccn2c1C)[C@@H](O)[C@H](O)[C@@H](c1ccccc1)N3 [BYK99]
- times higher apparent affinity than SCH28080 [1]: more than 25 times

- IC50 [2]: 39.9 ± 3.3 µM
- reciprocal K+-stimulated ATPase activity, Lineweaver-Burk raw data ([3]; compound concentration 5, 1/KCl 0.05 (units not given)): 0.0047 and 0.0046 and 0.005
- reciprocal K+-stimulated ATPase activity, Lineweaver-Burk raw data ([3]; compound concentration 5, 1/KCl 0.1 (units not given)): 0.0059 and 0.0058 (2×)
- reciprocal K+-stimulated ATPase activity, Lineweaver-Burk raw data ([3]; compound concentration 5, 1/KCl 0.125 (units not given)): 0.0059 (2×) and 0.006
- reciprocal K+-stimulated ATPase activity, Lineweaver-Burk raw data ([3]; compound concentration 5, 1/KCl 0.2 (units not given)): 0.0059 (2×) and 0.0061
- reciprocal K+-stimulated ATPase activity, Lineweaver-Burk raw data ([3]; compound concentration 5, 1/KCl 0.5 (units not given)): 0.0114 and 0.0113 and 0.0109
- reciprocal K+-stimulated ATPase activity, Lineweaver-Burk raw data ([3]; compound concentration 5, 1/KCl 1 (units not given)): 0.0177 and 0.0175 and 0.0166
- reciprocal K+-stimulated ATPase activity, Lineweaver-Burk raw data ([3]; compound concentration 5, 1/KCl 2 (units not given)): 0.0312 and 0.0335 and 0.0294
- reciprocal K+-stimulated ATPase activity, Lineweaver-Burk raw data ([3]; compound concentration 10, 1/KCl 0.05 (units not given)): 0.0052
- reciprocal K+-stimulated ATPase activity, Lineweaver-Burk raw data ([3]; compound concentration 10, 1/KCl 0.1 (units not given)): 0.0066 and 0.0067 and 0.0069
- reciprocal K+-stimulated ATPase activity, Lineweaver-Burk raw data ([3]; compound concentration 10, 1/KCl 0.125 (units not given)): 0.0073 and 0.0075 and 0.0074
- reciprocal K+-stimulated ATPase activity, Lineweaver-Burk raw data ([3]; compound concentration 10, 1/KCl 0.2 (units not given)): 0.0079 and 0.0078 and 0.0077
- reciprocal K+-stimulated ATPase activity, Lineweaver-Burk raw data ([3]; compound concentration 10, 1/KCl 0.5 (units not given)): 0.0173 and 0.016 and 0.018
- reciprocal K+-stimulated ATPase activity, Lineweaver-Burk raw data ([3]; compound concentration 10, 1/KCl 1 (units not given)): 0.0258 (2×) and 0.029
- reciprocal K+-stimulated ATPase activity, Lineweaver-Burk raw data ([3]; compound concentration 10, 1/KCl 2 (units not given)): 0.0498 and 0.0514 and 0.0558
- reciprocal K+-stimulated ATPase activity, Lineweaver-Burk raw data ([3]; compound concentration 40, 1/KCl 0.05 (units not given)): 0.0101 and 0.0102 and 0.0088
- reciprocal K+-stimulated ATPase activity, Lineweaver-Burk raw data ([3]; compound concentration 40, 1/KCl 0.1 (units not given)): 0.0146 and 0.0158 and 0.0151
- reciprocal K+-stimulated ATPase activity, Lineweaver-Burk raw data ([3]; compound concentration 40, 1/KCl 0.125 (units not given)): 0.0175 and 0.0157 and 0.013
- reciprocal K+-stimulated ATPase activity, Lineweaver-Burk raw data ([3]; compound concentration 40, 1/KCl 0.2 (units not given)): 0.0176 and 0.0181 and 0.0182
- reciprocal K+-stimulated ATPase activity, Lineweaver-Burk raw data ([3]; compound concentration 40, 1/KCl 0.5 (units not given)): 0.0393 and 0.036 and 0.0314
- reciprocal K+-stimulated ATPase activity, Lineweaver-Burk raw data ([3]; compound concentration 40, 1/KCl 1 (units not given)): 0.0754 and 0.0762 and 0.0737
- reciprocal K+-stimulated ATPase activity, Lineweaver-Burk raw data ([3]; compound concentration 40, 1/KCl 2 (units not given)): 0.1646 and 0.1689 and 0.18
- Ki ([3]; double reciprocal plot analysis, K+-competitive, read-out: estimated inhibition constant Ki): 4.65 µM
- inhibition mode ([3]; double reciprocal plot, versus K+): typical competitive inhibition pattern
Structure (SMILES): CNCC#CCOCc1cc(Cl)ccc1-c1ccc(Cl)cc1 [DQ-02]
- H+,K+-ATPase activity, raw data of dose-dependent inhibition ([2]; [PCAB] -3.30103 (log, unit not given)): -3.48 and -2.88 and 2.99 and 4.4 and 2.96 and 5.89
- H+,K+-ATPase activity, raw data of dose-dependent inhibition ([2]; [PCAB] -3.52288 (log, unit not given)): 0.86 and 1.16 and 4.19 and 5.19 and 4.89 and 4.75
- H+,K+-ATPase activity, raw data of dose-dependent inhibition ([2]; [PCAB] -4 (log, unit not given)): 42.01 and 43.89 and 31.47 and 31.59 and 28.65 and 29.6
- H+,K+-ATPase activity, raw data of dose-dependent inhibition ([2]; [PCAB] -4.30103 (log, unit not given)): 44.62 and 46.8 and 48.6 and 46.17 and 46.72 and 37.34
- H+,K+-ATPase activity, raw data of dose-dependent inhibition ([2]; [PCAB] -4.52288 (log, unit not given)): 56.61 and 55.53 and 56.64 and 57.99 and 58.21 and 59.24
- H+,K+-ATPase activity, raw data of dose-dependent inhibition ([2]; [PCAB] -5 (log, unit not given)): 76.31 and 74.65 and 77.66 and 80.01 and 78.54 and 73.73
- H+,K+-ATPase activity, raw data of dose-dependent inhibition ([2]; [PCAB] -5.52288 (log, unit not given)): 94.23 and 90.64 and 95.59 and 93.89 and 93 and 95.88
- H+,K+-ATPase activity, raw data of dose-dependent inhibition ([2]; [PCAB] -6 (log, unit not given)): 97.7 and 98.02 and 94.2 and 97.49 and 93.51 and 99.15
- H+,K+-ATPase activity, raw data of dose-dependent inhibition ([2]; [PCAB] -6.30103 (log, unit not given)): 97.98 and 96.67 and 103.79 and 104.81 and 106.59 and 107.52
- H+,K+-ATPase activity, raw data of dose-dependent inhibition ([2]; [PCAB] -7 (log, unit not given)): 99.57 and 99.45 and 98.18 and 98.05 and 96.63 and 99.09
- H+,K+-ATPase activity, raw data of dose-dependent inhibition ([2]; [PCAB] -8 (log, unit not given)): 97.5 and 100.13 and 97.23 and 97.51 and 96.21 and 102.69
- H+,K+-ATPase activity, raw data of dose-dependent inhibition ([2]; [PCAB] -11 (log, unit not given; possibly placeholder for no compound)): 99.85 and 98.59 and 101.41 and 99.82 and 98.22 and 99.87

Structure (SMILES): COCCO[C@@H]1c2ccn3c(C)c(C)nc3c2N[C@H](c2ccccc2)[C@H]1O [soraprazan]
- times higher apparent affinity than SCH28080 [1]: > 7 times

Structure (SMILES): Cc1nc2c(OCc3ccccc3)cccn2c1CC#N [SCH28080]
- Ki ([4]; pH 6.11): 0.02 µM
- Ki ([4]; pH 7.35): 0.066 µM
